Measured values published in ChEMBL document CHEMBL4622975 (J Med Chem, 2020).
Activity calls are given as the source filed them. The calls are words filed in the database; no cut-off is given here.

Assays:
[1] = target: Tyrosine-protein phosphatase non-receptor type 6 (Homo sapiens, UniProt P29350)
[2] = Drug uptake in mouse RAW264.7 cells at 20 uM measured after 2 hrs by LC-MS analysis; assay type: ADME, cell-based; conditions: raw264.7, 2 h
[3] = target: T1, Tyrosine-protein phosphatase non-receptor type 11 (Homo sapiens, UniProt Q06124)
T1 sequence (Q06124 whole entry): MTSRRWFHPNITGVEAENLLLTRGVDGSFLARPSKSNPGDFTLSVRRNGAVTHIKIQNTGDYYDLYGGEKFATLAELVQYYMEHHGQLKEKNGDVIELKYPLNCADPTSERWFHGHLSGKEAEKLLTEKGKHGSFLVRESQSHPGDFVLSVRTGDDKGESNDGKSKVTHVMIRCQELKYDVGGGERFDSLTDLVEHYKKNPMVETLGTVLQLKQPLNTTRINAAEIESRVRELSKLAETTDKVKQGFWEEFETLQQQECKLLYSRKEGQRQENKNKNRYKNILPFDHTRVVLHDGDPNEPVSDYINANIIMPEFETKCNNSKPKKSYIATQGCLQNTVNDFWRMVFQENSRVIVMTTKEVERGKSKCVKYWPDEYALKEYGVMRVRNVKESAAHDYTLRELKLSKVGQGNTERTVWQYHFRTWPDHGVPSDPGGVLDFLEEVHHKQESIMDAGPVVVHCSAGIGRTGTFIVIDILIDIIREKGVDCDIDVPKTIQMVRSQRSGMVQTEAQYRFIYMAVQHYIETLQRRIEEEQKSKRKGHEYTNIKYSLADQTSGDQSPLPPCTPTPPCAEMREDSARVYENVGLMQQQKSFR

[4] = target: T2, Tyrosine-protein phosphatase non-receptor type 1 (Homo sapiens, UniProt P18031)
T2 sequence (P18031 whole entry): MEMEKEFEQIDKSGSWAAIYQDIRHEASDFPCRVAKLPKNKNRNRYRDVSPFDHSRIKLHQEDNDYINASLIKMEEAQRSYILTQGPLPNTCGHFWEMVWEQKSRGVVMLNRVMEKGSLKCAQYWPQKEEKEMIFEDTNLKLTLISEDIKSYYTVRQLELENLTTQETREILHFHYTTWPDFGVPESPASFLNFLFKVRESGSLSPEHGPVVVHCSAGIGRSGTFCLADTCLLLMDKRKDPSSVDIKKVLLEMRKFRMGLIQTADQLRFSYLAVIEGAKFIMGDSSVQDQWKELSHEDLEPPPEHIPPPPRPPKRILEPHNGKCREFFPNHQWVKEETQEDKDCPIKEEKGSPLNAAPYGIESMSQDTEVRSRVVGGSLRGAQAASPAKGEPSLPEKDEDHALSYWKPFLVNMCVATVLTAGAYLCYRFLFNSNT

[5] = target: Receptor-type tyrosine-protein phosphatase epsilon (Homo sapiens, UniProt P23469)
[6] = Stability in CD1 mouse pooled liver microsomes measured after 2 hrs in absence of NADPH by LC-MS/MS analysis; assay type: ADME, Microsome
[7] = target: T3, Phosphotyrosine protein phosphatase (Mycobacterium tuberculosis, UniProt A0A045ISB3)
T3 sequence (A0A045ISB3 whole entry): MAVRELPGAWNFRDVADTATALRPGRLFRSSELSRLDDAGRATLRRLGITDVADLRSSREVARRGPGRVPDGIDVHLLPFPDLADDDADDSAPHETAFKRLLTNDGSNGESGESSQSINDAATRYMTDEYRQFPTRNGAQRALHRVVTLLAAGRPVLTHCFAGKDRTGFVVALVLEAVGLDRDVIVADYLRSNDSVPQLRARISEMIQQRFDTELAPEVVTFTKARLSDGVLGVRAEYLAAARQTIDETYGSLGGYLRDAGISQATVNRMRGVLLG
Description: Inhibition of Mycobacterium tuberculosis PTPB expressed in Escherichia coli BL21 (DE3) using p-nitrophenyl phosphate as substrate measured after 30 mins by UV-vis spectrophotometric method

[8] = target: T4, Phosphotyrosine protein phosphatase (Mycobacterium tuberculosis) (UniProt A0A045ISB3)
T4 sequence (whole entry): T3 sequence (A0A045ISB3 whole entry)
Description: Time-dependent inhibition of Mycobacterium tuberculosis PTPB expressed in Escherichia coli BL21 (DE3) using p-nitrophenyl phosphate as substrate in presence of Triton-X-100 by UV-vis spectrophotometric method

[9] = target: T4, Phosphotyrosine protein phosphatase (Mycobacterium tuberculosis); remark: listed apart in the source
Description: Time-dependent inhibition of Mycobacterium tuberculosis PTPB expressed in Escherichia coli BL21 (DE3) using p-nitrophenyl phosphate as substrate in absence of Triton-X-100 by UV-vis spectrophotometric method

MEF = assay: Cytotoxicity against MEF at 25 uM measured after 72 hrs by MTT assay; assay type: cell-based; conditions: mouse

Chain of Tyrosine-protein phosphatase non-receptor type 6 (P29350 whole entry): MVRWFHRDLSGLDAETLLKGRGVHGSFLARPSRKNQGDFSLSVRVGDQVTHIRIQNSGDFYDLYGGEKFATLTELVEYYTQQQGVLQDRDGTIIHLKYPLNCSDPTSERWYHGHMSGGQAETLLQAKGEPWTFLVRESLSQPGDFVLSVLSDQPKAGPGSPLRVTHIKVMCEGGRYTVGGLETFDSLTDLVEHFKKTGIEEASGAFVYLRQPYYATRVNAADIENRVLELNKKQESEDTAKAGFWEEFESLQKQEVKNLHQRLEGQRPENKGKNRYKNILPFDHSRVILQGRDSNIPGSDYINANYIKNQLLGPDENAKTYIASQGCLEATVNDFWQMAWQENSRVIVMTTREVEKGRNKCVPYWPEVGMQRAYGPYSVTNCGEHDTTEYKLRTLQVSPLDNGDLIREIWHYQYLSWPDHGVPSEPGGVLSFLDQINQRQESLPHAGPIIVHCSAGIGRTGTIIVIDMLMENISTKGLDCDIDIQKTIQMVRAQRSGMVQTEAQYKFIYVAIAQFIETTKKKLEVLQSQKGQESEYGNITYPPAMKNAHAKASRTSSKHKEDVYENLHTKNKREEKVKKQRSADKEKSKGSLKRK
Chain of Receptor-type tyrosine-protein phosphatase epsilon (P23469 whole entry): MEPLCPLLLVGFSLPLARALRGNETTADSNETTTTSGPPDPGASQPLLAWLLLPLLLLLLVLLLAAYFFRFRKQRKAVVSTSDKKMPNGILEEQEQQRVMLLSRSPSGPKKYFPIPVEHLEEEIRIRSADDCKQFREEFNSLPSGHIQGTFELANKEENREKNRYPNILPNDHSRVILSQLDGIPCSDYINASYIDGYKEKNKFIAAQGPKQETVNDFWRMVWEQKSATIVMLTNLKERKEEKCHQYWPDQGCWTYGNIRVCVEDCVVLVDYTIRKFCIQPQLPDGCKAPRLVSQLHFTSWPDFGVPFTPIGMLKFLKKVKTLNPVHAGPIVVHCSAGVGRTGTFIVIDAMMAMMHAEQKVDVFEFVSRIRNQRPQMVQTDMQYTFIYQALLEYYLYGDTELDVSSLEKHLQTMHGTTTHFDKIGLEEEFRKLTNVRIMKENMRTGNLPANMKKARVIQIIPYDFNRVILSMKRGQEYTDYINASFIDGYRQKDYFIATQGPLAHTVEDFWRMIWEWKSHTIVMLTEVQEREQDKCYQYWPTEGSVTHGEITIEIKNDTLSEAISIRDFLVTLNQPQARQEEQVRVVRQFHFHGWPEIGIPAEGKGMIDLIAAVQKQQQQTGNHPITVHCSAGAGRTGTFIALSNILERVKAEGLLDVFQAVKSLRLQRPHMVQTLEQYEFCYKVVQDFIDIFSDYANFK

Row | Structure (SMILES) | IC50 [1] [µM] | IC50 [3] [µM] | IC50 [4] [µM] | IC50 [7] [µM] | other results
1 | O=C(O)C(=O)Nc1ccc(C#Cc2ccc(C(F)(F)F)cc2)cc1 | > 50 | > 50 | > 50 |  | Drug uptake [2]: Active; IC50 [5]: > 30 µM; Stability [6]: Stable
2 | O=C(O)C(=O)Nc1ccc(C#Cc2ccc(C(F)(F)F)cc2Br)cc1 |  |  |  |  | Drug uptake [2]: Active; Stability [6]: Stable
3 | O=C(O)C(=O)Nc1ccc(C#Cc2ccc(C(F)(F)F)cc2C(F)(F)F)cc1 | > 30 | > 30 | > 30 |  | 
4 | C#Cc1ccc(NC(=O)C(=O)O)cc1 |  | > 100 | > 100 |  | 
5 | O=C(O)C(=O)Nc1ccc(/C=C\c2ccccc2)cc1 |  | > 30 | > 30 | 0.77 | 
6 | CN(C)c1cc(O)c(C(=O)O)cc1C#Cc1ccc(NC(=O)C(=O)O)cc1 |  |  | > 100 | 0.09 | 
7 | O=C(O)C(=O)Nc1ccccc1 |  | > 100 | > 100 |  | 
8 | O=C(O)C(=O)Nc1ccc(C#Cc2ccc(C(F)(F)F)cc2F)cc1 | > 30 | > 30 | > 30 |  | Drug uptake [2]: Active; Stability [6]: Stable
9 | O=C(O)C(=O)Nc1ccc(C#Cc2ccc(OC(F)(F)F)cc2)cc1 | > 50 | > 50 | > 50 |  | 
10 | O=C(O)C(=O)Nc1ccc(C#Cc2ccc(O)cc2)cc1 | > 50 | > 50 | > 50 |  | 
11 | O=C(O)C(=O)Nc1ccc(C#Cc2cc(C(F)(F)F)cc(C(F)(F)F)c2)cc1 | > 50 | > 50 | > 50 | 0.06 | TDI [8]: Active; TDI [9]: Active
12 | COC(=O)c1cc(C#Cc2cccc(NC(=O)C(=O)O)c2)c(N(C)C)cc1O | > 50 | > 50 | > 50 |  | 
13 | COC(=O)c1cc(C#Cc2ccc(NC(=O)C(=O)O)cc2)ccc1O | > 50 |  | > 50 | 0.025 | 
14 | NS(=O)(=O)c1ccc(C#Cc2ccc(NC(=O)C(=O)O)cc2)cc1 |  | > 50 | > 50 |  | 
15 | O=C(O)C(=O)Nc1ccc(/C=C\c2ccc(C(F)(F)F)cc2)cc1 |  | > 30 | > 30 | 0.684 | 
16 | CC(C)(C)OC(=O)NCC#Cc1ccc(NC(=O)C(=O)O)cc1 |  |  | > 100 |  | 

Row | Structure (SMILES) | IC50 [1] [µM] | IC50 [3] [µM] | IC50 [4] [µM] | IC50 [7] [µM] | other results
17 | O=C(O)C(=O)Nc1ccc(C#Cc2ccc(O)c(Br)c2)cc1 | > 50 |  | > 50 |  | 
18 | O=C(O)C(=O)Nc1ccc(CCc2ccccc2)cc1 |  | > 30 | > 30 | 1.27 | 
19 | O=C(O)C(=O)Nc1cnc2ccccc2c1 |  |  |  | > 10 | 
20 | O=C(O)C(=O)Nc1ccc(C#Cc2cccc(C(F)(F)F)c2)cc1 | > 50 | > 50 |  |  | 
21 | CC(C)(C)c1ccc(C#Cc2ccc(NC(=O)C(=O)O)cc2)cc1 | > 50 | > 50 | > 50 | 0.026 | 
22 | O=C(O)C(=O)Nc1ccc(C#Cc2ccccc2)cc1 | > 100 | > 100 | > 100 | 0.257 | 
23 | N#Cc1ccc(C#Cc2ccc(NC(=O)C(=O)O)cc2)cc1 | > 50 | > 50 | > 50 |  | 
24 | CC(C)(C)OC(=O)Nc1ccc(C#Cc2ccc(NC(=O)C(=O)O)cc2)cc1 | > 50 | > 50 | > 50 |  | Activity (MEF): Non-Toxic
25 | O=C(O)C(=O)Nc1ccc(CCc2ccc(C(F)(F)F)cc2)cc1 |  | > 30 | > 30 | 0.197 | 
26 | O=C(O)C(=O)Nc1ccc(C#Cc2ccc(C(F)(F)F)cc2Cl)cc1 | > 30 | > 30 | > 30 |  | Drug uptake [2]: Active; Stability [6]: Stable; Activity (MEF): Non-Toxic
27 | CN(C)c1cc(O)c(C(=O)O)cc1C#Cc1cccc(NC(=O)C(=O)O)c1 |  |  |  | 0.16 | 
28 | COC(=O)c1ccc(C#Cc2ccc(NC(=O)C(=O)O)cc2)cc1O | > 50 | > 50 | > 50 |  | 
29 | O=C(O)C(=O)Nc1ccc(C#Cc2ccc3ccccc3c2)cc1 | > 50 | > 50 | > 50 |  | 
30 | O=C(O)C(=O)Nc1cccc(C#Cc2ccccc2)c1 |  |  | > 100 |  | 
31 | COC(=O)c1cc(C#Cc2ccc(NC(=O)C(=O)O)cc2)c(N(C)C)cc1O | > 50 | > 50 | > 50 | 0.03 | 
